Measurements: ChEMBL document CHEMBL3244335 (J Med Chem, 1977)

system: not listed separately; assay: Octanol-water partition coefficient, P of the compound at 37 degC; conditions: not given

For `NC(N)=S` [THIOUREA], the P was 0.09.

system: not listed separately; assay: Octanol-water partition coefficient, log P of the compound at pH 9.2; assay type: physicochemical; conditions: not given

Compound `CN/C(=N/CCSCc1nc[nH]c1C)NC#N` [CIMETIDINE] has a logP of 2.5.

same assay, conditions: read-out: logP (converted)

With `C/N=C(\S)NCCSCc1[nH]cnc1C` [METIAMIDE] the logP was 0.505.

molecular target: Histamine H2 receptor (Rattus norvegicus) (UniProt P25102); assay: Antagonist at histamine H2 receptor in rat uterus assessed as inhibition of histamine-induced response; assay type: tissue-based; conditions: not given
Sequence (P25102 whole entry): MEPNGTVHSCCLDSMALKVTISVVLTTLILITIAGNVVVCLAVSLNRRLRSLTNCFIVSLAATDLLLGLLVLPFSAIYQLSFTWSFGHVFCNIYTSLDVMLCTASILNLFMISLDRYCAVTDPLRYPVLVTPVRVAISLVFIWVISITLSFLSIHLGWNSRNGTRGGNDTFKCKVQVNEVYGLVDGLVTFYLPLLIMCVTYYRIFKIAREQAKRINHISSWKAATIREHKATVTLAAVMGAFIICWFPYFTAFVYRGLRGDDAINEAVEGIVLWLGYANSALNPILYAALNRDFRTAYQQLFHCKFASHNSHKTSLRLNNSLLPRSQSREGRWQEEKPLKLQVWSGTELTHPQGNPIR

Going from `CNC(=S)NCCSCc1c[nH]cn1` to `CN/C(=N\C#N)NCCSCc1c[nH]cn1`, the Kb falls from 3.2 µM to 1.6 µM (2-fold).

`CN/C(=N\C#N)NCCCCc1c[nH]cn1` and `CN/C(=N/C#N)NCCCCc1nc[nH]c1C` are within 1.5-fold of each other in Kb: 7.1 µM for the first, 4.9 µM for the second.

Going from `CNC(=S)NCCCCc1nc[nH]c1C` to `CNC(=N)NCCSCc1nc[nH]c1C`, the Kb falls from 10.7 µM to 5.5 µM (1.9-fold).

Going from `CNC(=O)NCCSCc1[nH]cnc1C` to `CNC(=S)NCCSCc1[nH]cnc1C`, the Kb falls from 7.1 µM to 0.75 µM (9.5-fold).

First: CN/C(=N\CCSCc1nc[nH]c1C)NC#N
Second: CN/C(=N\C(N)=O)NCCSCc1nc[nH]c1C
The Kb of the first is 8.5-fold lower: 0.81 µM for the first, 6.9 µM for the second.

Going from `C/N=C(\S)NCCCCc1c[nH]cn1` to `C/N=C(/NCCSCc1[nH]cnc1C)N[N+](=O)[O-]`, the Kb falls from 6.6 µM to 1.4 µM (4.7-fold).

molecular target: Histamine H2 receptor (Cavia porcellus) (UniProt P47747); assay: Antagonist at histamine H2 receptor in guinea pig atrium assessed as inhibition of histamine-induced response; conditions: Cardiac atrium
Sequence (P47747 whole entry): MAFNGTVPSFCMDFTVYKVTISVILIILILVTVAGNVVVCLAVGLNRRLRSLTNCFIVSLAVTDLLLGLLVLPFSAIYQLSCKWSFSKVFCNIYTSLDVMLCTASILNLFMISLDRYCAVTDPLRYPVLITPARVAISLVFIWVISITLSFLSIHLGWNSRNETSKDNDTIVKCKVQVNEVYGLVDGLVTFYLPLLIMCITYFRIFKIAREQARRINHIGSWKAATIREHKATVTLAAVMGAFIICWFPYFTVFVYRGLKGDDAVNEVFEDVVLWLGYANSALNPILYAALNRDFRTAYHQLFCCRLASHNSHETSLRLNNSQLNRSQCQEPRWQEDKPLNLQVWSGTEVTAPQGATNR

Going from `CNC(=S)NCCSCc1c[nH]cn1` to `CN/C(=N\C#N)NCCSCc1c[nH]cn1`, the Kb falls from 3.2 µM to 1.4 µM (2.3-fold).

`CN/C(=N\C#N)NCCCCc1c[nH]cn1` and `CN/C(=N/C#N)NCCCCc1nc[nH]c1C` are within 1.5-fold of each other in Kb: 8.3 µM for the first, 8.1 µM for the second.

Compared with `CNC(=S)NCCCCc1nc[nH]c1C`, `CNC(=N)NCCSCc1nc[nH]c1C` is 1.8-fold higher in Kb: 8.9 µM for the first, 16 µM for the second.

First: CNC(=O)NCCSCc1[nH]cnc1C
Second: CNC(=S)NCCSCc1[nH]cnc1C
The Kb of the first is 24-fold higher: 22 µM for the first, 0.92 µM for the second.

Compared with `C/N=C(\S)NCCCCc1c[nH]cn1`, `C/N=C(/NCCSCc1[nH]cnc1C)N[N+](=O)[O-]` is 5.6-fold lower in Kb: 7.8 µM for the first, 1.4 µM for the second.

`CN/C(=N\C(N)=O)NCCSCc1nc[nH]c1C` gave a Kb of 7.1 µM.

system: not listed separately; assay: Ionization constant, pKa of the imidazole ring of the compound; assay type: physicochemical; conditions: not given

Compound `C/N=C(\S)NCCSCc1[nH]cnc1C` [METIAMIDE] has a pKa of 6.8.

system: not listed separately; assay: Solubility of the compound in water at 37 degC; assay type: physicochemical; conditions: buffer

Going from `CN/C(=N/CCSCc1nc[nH]c1C)NC#N` [CIMETIDINE] to `C/N=C(\S)NCCSCc1[nH]cnc1C` [METIAMIDE], the solubility falls from 1.14% to 0.32%.

system: not listed separately; assay: Octanol-water partition coefficient, log P of the compound at 37 degC; assay type: physicochemical; conditions: not given

`CNC(=NC#N)NC` and `CNC(=S)NC` are within 0.2 log units of each other in logP: -0.398 for the first, -0.237 for the second.

Compound `N#CNC(=N)N` has a logP of -1.16.

system: not listed separately; assay: Ionization constant, pKa of the compound; assay type: physicochemical; conditions: not given

Going from `NC(N)=S` [THIOUREA] to `N=C(N)N` [GUANIDINE], the pKa rises from -1.2 to 13.6.

`N#CNC(=N)N` showed a pKa of -0.4.
